Where two headings read alike, the source gives them in different places.
Tests used:
[1] = target: wild-type human cardiac sodium channel, hNav1.5 (Homo sapiens, UniProt Q14524); experiment: Peak INa screening assay (tonic block and use-dependent block); format: cell-based
Summary of the method: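 HEK293 cells stably expressing hNav1.5 (no beta subunits), automated whole-cell patch clamp at 23-25° C, 40 mM Na+ bath (choline substitution), pH 7.35. Compound at 1 or 3 μM, added twice then 200 s equilibration; tonic block by steps to −20 mV from −100 mV at 0.1 Hz, use-dependent block at pulse 50 of a 3 Hz train, rundown-corrected versus compound-free.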

hNav1.1 (SCN1A) = hNav1.1 (SCN1A) (Homo sapiens, UniProt P35498); experiment: Use-dependent inhibition of the CNS Nav1.1 sodium channel; format: cell-based; conditions: use-dependent block, 25 Hz, pulse 20, read-out: Nav1.1 UDB 25 Hz 10 uM
Summary of the method: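 HEK-293 cells stably expressing WT hNav1.1, automated whole-cell patch clamp at 23-25 °C with CsF-based internal and NaCl external solutions, pH 7.35. Compound applied twice, 200 s equilibration; block measured at pulse 20 of a 25 Hz train (0 mV, 20 ms) from −120 mV, as mean % inhibition versus compound-free.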

[2] = tonic block of Peak INa, 0.1 Hz, holding -100 mV, read-out: Peak TB 3 uM
[3] = use-dependent block of Peak INa, 3 Hz, pulse 50, read-out: Peak UDB 3 Hz 3 uM

wild-type human cardiac sodium channel, hNav1.5, sequence (Q14524 whole entry): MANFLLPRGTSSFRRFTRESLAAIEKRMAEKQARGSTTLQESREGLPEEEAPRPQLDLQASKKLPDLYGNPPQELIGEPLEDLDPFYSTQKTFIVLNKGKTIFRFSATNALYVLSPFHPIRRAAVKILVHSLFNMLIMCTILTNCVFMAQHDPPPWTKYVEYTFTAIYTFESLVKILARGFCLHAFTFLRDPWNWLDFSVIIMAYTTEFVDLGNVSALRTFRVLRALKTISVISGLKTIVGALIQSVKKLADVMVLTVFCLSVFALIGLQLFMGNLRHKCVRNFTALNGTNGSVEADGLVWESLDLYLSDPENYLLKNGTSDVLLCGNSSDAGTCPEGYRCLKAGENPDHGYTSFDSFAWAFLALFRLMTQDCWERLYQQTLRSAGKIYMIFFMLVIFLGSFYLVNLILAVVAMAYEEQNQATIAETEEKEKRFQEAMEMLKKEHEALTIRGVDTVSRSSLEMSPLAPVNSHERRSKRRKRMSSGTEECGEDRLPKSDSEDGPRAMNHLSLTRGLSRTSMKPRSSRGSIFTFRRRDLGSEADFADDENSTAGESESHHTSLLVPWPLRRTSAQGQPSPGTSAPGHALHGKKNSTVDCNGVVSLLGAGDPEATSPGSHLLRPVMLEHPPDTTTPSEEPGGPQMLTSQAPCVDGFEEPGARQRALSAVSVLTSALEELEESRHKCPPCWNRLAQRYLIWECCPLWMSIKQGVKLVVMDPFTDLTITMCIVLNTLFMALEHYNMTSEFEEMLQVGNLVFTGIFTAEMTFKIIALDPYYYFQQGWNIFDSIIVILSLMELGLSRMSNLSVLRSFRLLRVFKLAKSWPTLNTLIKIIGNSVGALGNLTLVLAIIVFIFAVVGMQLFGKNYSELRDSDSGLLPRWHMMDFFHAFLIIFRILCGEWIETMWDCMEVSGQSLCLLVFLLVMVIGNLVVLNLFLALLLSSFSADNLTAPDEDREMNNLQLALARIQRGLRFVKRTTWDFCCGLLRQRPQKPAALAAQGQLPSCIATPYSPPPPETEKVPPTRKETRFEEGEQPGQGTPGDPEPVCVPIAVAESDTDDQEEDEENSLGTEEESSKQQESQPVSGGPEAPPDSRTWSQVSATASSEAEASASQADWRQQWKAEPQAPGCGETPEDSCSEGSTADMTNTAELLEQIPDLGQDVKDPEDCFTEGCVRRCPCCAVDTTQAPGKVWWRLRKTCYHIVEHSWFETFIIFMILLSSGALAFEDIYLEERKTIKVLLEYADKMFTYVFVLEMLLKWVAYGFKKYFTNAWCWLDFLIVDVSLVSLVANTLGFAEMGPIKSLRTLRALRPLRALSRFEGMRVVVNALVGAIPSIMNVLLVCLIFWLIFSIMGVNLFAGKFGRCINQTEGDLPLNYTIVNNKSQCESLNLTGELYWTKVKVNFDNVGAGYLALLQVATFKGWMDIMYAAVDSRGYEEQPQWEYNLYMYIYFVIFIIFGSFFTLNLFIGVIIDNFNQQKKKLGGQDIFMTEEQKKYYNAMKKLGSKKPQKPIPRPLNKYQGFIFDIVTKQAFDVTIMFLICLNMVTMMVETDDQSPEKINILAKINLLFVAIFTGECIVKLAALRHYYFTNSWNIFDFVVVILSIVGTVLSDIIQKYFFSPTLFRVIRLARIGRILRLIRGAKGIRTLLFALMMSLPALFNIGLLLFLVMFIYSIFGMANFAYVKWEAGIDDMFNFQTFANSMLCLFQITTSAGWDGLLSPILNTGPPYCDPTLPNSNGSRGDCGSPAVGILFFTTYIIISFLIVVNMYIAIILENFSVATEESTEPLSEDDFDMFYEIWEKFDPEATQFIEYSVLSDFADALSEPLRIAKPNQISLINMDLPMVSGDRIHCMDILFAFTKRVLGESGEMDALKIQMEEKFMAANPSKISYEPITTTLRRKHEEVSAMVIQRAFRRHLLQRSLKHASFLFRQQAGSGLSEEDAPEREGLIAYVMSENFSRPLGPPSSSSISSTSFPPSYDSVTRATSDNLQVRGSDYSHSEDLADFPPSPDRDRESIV

SMILES	inhibition at 3 µM [1, 2] [%]	inhibition at 3 µM [1, 3] [%]	inhibition at 10 µM (hNav1.1 (SCN1A)) [%]
FC(F)(F)Oc1ccc(-c2ccc3onc(OC[C@H]4COCCN4)c3c2)cc1 [Example 114, (R)-3-(morpholin-3-ylmethoxy)-5-(4-(trifluoromethoxy)phenyl)benzo[d]isoxazole]	43.4	33.3	87.1
CC(=O)N1CCOC[C@H]1COc1noc2ccc(-c3ccc(OC(F)(F)F)cc3)cc12 [Example 115, (S)-1-(3-(((5-(4-(trifluoromethoxy)phenyl)benzo[d]isoxazol-3-yl)oxy)methyl)morpholino)ethan-1-one]	19.8	18.3	76.4
CC(=O)N1CCOC[C@@H]1COc1noc2ccc(-c3ccc(OC(F)(F)F)cc3)cc12 [Example 116, (R)-1-(3-(((5-(4-(trifluoromethoxy)phenyl)benzo[d]isoxazol-3-yl)oxy)methyl)morpholino)ethan-1-one]	28.9	15	70.4
C[C@@H](N)COc1noc2ccc(-c3ccc(OC(F)(F)F)cc3)cc12 [Example 117, (R)-1-((5-(4-(trifluoromethoxy)phenyl)benzo[d]isoxazol-3-yl)oxy)propan-2-amine]	79.3	60.8	80.9
CC(C)[C@H](N)COc1noc2ccc(-c3ccc(OC(F)(F)F)cc3)cc12 [Example 118, (S)-3-methyl-1-((5-(4-(trifluoromethoxy)phenyl)benzo[d]isoxazol-3-yl)oxy)butan-2-amine]	88.8	56.1	89.4
C[C@H](COc1noc2ccc(-c3ccc(OC(F)(F)F)cc3)cc12)N1CCCC1=O [Example 119, (R)-1-(1-((5-(4-(trifluoromethoxy)phenyl)benzo[d]isoxazol-3-yl)oxy)propan-2-yl)pyrrolidin-2-one]	36.1	6.4	56.3
CC(C)[C@@H](COc1noc2ccc(-c3ccc(OC(F)(F)F)cc3)cc12)N1CCCC1=O [Example 120, (S)-1-(3-methyl-1-((5-(4-(trifluoromethoxy)phenyl)benzo[d]isoxazol-3-yl)oxy)butan-2-yl)pyrrolidin-2-one]	35.2	6.6	68.9
O=C(COc1noc2ccc(-c3ccc(OC(F)(F)F)cc3)cc12)N1CCCC1 [Example 121, 1-(pyrrolidin-1-yl)-2-((5-(4-(trifluoromethoxy)phenyl)benzo[d]isoxazol-3-yl)oxy)ethan-1-one]	79	23.4	43.6
CC(C)NC(=O)COc1noc2ccc(-c3ccc(OC(F)(F)F)cc3)cc12 [Example 122, N-isopropyl-2-((5-(4-(trifluoromethoxy)phenyl)benzo[d]isoxazol-3-yl)oxy)acetamide]	10.7	< 5	< 5
FC(F)(F)Oc1ccc(-c2ccc3onc(OCCNc4ncccn4)c3c2)cc1 [Example 123, N-(2-((5-(4-(trifluoromethoxy)phenyl)benzo[d]isoxazol-3-yl)oxy)ethyl)pyrimidin-2-amine]	27.3	< 5	< 5
FC(F)(F)Oc1ccc(-c2ccc3onc(Oc4ncccn4)c3c2)cc1 [Example 124, 3-(pyrimidin-2-yloxy)-5-(4-(trifluoromethoxy)phenyl)benzo[d]isoxazole]	49.9	< 5	35
FC(F)(F)Oc1ccc(-c2ccc3onc(NCc4ncccn4)c3c2)cc1 [Example 126, N-(pyrimidin-2-ylmethyl)-5-(4-(trifluoromethoxy)phenyl)benzo[d]isoxazol-3-amine]	17.3	< 5	< 5
CN1CCN(c2noc3ccc(-c4ccc(OC(F)(F)F)cc4)cc23)CC1 [Example 127, 3-(4-methylpiperazin-1-yl)-5-(4-(trifluoromethoxy)phenyl)benzo[d]isoxazole]	23.7	25.1	82.8
FC(F)(F)Oc1ccc(-c2ccc3onc(NCC4CC4)c3c2)cc1 [Example 128, N-(cyclopropylmethyl)-5-(4-(trifluoromethoxy)phenyl)benzo[d]isoxazol-3-amine]	17.3	< 5	< 5
FC(F)(F)Oc1ccc(-c2ccc3onc(N4CCOCC4)c3c2)cc1 [Example 130, 3-morpholino-5-(4-(trifluoromethoxy)phenyl)benzo[d]isoxazole]	9.2	< 5	< 5
FC(F)(F)Oc1ccc(-c2ccc3onc(-n4ccnc4)c3c2)cc1 [Example 132, 3-(1H-imidazol-1-yl)-5-(4-(trifluoromethoxy)phenyl)benzo[d]isoxazole]	20.6	5.1	< 5
CN(C)c1noc2ccc(-c3ccc(OC(F)(F)F)cc3)cc12 [Example 133, N,N-dimethyl-5-(4-(trifluoromethoxy)phenyl)benzo[d]isoxazol-3-amine]	38.8	5.2	22.1
O=C1CCCN1CCNc1noc2ccc(-c3ccc(OC(F)(F)F)cc3)cc12 [Example 135, 1-(2-((5-(4-(trifluoromethoxy)phenyl)benzo[d]isoxazol-3-yl)amino)ethyl)pyrrolidin-2-one]	29.3	18	87.2
FC(F)(F)Oc1ccc(-c2ccc3onc(-n4cncn4)c3c2)cc1 [Example 136, 3-(1H-1,2,4-triazol-1-yl)-5-(4-(trifluoromethoxy)phenyl)benzo[d]isoxazole]	10.5	< 5	< 5
FC(F)(F)Oc1ccc(-c2ccc3onc(NCCn4cncn4)c3c2)cc1 [Example 137, N-(2-(1H-1,2,4-triazol-1-yl)ethyl)-5-(4-(trifluoromethoxy)phenyl)benzo[d]isoxazol-3-amine]	43.9	17.4	82.6
Cc1cn(-c2noc3ccc(-c4ccc(OC(F)(F)F)cc4)cc23)cn1 [Example 139, 3-(4-methyl-1H-imidazol-1-yl)-5-(4-(trifluoromethoxy)phenyl)benzo[d]isoxazole]	15.6	< 5	8.8
FC(F)(F)Oc1ccc(-c2ccc3onc(-n4cnc(Cl)c4)c3c2)cc1 [Example 140, 3-(4-chloro-1H-imidazol-1-yl)-5-(4-(trifluoromethoxy)phenyl)benzo[d]isoxazole]	8.5	< 5	< 5
Cc1ncn(-c2noc3ccc(-c4ccc(OC(F)(F)F)cc4)cc23)n1 [Example 141, 3-(3-methyl-1H-1,2,4-triazol-1-yl)-5-(4-(trifluoromethoxy)phenyl)benzo[d]isoxazole]	17.8	< 5	31.5
FC(F)(F)Oc1ccc(-c2ccc3onc(-n4cnc(-c5ccccc5)c4)c3c2)cc1 [Example 142, 3-(4-phenyl-1H-imidazol-1-yl)-5-(4-(trifluoromethoxy)phenyl)benzo[d]isoxazole]	15.6	13.9	59
CC(C)(C)c1cn(-c2noc3ccc(-c4ccc(OC(F)(F)F)cc4)cc23)cn1 [Example 143, 3-(4-(tert-butyl)-1H-imidazol-1-yl)-5-(4-(trifluoromethoxy)phenyl)benzo[d]isoxazole]	39.8	11.2	66.6
CC(C)c1nccn1-c1noc2ccc(-c3ccc(OC(F)(F)F)cc3)cc12 [Example 144, 3-(2-isopropyl-1H-imidazol-1-yl)-5-(4-(trifluoromethoxy)phenyl)benzo[d]isoxazole]	46.9	< 5	73.2
FC(F)(F)Oc1ccc(-c2ccc3onc(-n4cnc(C(F)(F)F)c4)c3c2)cc1 [Example 145, 5-(4-(trifluoromethoxy)phenyl)-3-(4-(trifluoromethyl)-1H-imidazol-1-yl)benzo[d]isoxazole]	93	< 5	81.4
OCc1cn(-c2noc3ccc(-c4ccc(OC(F)(F)F)cc4)cc23)cn1 [Example 146, (1-(5-(4-(trifluoromethoxy)phenyl)benzo[d]isoxazol-3-yl)-1H-imidazol-4-yl)methanol]	28.8	25.5	87.3
Nc1noc2ccc(-c3ccc(OC(F)(F)F)cc3)cc12 [Example 147, 5-(4-(trifluoromethoxy)phenyl)benzo[d]isoxazol-3-amine]	26	3	32
COc1ccnc(CNc2noc3ccc(-c4ccc(OC(F)(F)F)cc4)cc23)n1 [Example 149, N-((4-methoxypyrimidin-2-yl)methyl)-5-(4-(trifluoromethoxy)phenyl)benzo[d]isoxazol-3-amine]	86.4	< 5	50
